Data reported in patent publication US20260224571A1, “AZACYCLOALKANE COMPOUND AND PHARMACEUTICAL COMPOSITION, AND USE THEREOF” (Prime Gene Therapeutics Co., Ltd., priority 2023, published 2026).
Where a name gives a salt, the structure may show the parent alone.

Key:
[1] = target: ROCK1 (Homo sapiens, UniProt Q13464); assay: ROCK1 kinase enzymatic activity (HTRF, STK2 substrate); type: biochemical; settings: ROCK1 kinase reacted at room temperature for 20 minutes
Description: (§1) The kinase activity data was expressed by comparing the kinase activity of the test compound and that of the blank group (containing only DMSO), and the IC50 value was obtained by curve fitting using Prism software (GraphPad7.0).

[2] = target: ROCK2 (Homo sapiens, UniProt O75116); assay: ROCK2 kinase enzymatic activity (HTRF, STK2 substrate); type: biochemical; settings: ROCK2 kinase reacted at room temperature for 30 minutes
ROCK2, sequence (O75116 whole entry): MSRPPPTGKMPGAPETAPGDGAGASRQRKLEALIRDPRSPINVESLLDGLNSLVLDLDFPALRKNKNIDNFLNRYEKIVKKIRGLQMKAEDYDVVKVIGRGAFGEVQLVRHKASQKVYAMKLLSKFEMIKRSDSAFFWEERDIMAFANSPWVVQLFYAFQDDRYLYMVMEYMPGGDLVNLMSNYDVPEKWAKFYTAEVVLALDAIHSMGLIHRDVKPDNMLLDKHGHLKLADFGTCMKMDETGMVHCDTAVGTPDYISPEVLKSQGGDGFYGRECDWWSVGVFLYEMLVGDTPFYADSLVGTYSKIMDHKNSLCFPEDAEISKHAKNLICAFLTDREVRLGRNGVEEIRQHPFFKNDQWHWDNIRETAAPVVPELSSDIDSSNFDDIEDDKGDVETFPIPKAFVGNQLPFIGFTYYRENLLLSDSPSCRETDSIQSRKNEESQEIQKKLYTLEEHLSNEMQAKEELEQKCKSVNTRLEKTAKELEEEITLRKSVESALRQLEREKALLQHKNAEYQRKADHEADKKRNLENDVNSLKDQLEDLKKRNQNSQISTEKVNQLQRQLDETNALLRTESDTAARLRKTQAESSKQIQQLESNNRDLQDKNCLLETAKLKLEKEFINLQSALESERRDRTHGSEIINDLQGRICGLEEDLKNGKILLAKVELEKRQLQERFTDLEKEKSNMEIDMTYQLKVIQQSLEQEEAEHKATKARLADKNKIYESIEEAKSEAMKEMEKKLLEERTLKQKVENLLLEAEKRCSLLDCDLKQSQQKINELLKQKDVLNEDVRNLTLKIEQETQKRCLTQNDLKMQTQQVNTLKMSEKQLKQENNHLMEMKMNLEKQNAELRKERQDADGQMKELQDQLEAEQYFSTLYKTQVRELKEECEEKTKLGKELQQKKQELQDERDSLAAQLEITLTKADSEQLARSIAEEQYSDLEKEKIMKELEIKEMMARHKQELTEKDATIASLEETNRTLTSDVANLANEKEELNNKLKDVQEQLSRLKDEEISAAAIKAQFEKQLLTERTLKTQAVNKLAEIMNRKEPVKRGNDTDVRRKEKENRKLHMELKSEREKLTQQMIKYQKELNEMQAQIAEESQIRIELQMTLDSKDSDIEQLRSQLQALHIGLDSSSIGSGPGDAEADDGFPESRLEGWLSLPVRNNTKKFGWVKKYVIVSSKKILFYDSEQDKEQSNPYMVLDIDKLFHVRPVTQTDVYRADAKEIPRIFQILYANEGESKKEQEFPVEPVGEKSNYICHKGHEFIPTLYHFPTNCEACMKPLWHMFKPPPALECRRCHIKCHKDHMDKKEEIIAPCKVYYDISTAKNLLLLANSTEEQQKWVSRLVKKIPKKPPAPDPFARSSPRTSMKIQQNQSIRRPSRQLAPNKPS
Description: as §1

[3] = test system: phosphorylation of myosin light chain T18/S19; assay: In Cell Western for phosphorylation of myosin light chain in A7r5 cells; type: cell-based; settings: rat smooth muscle cell line A7r5, 1 hour with compound, phospho-MLC-T18/S19; read-out: cellular activity IC50
Description: The rat smooth muscle cell line A7r5 was used, and the A7r5 cell culture conditions were DMEM containing 10% FBS. Phspho-MLC-T18/S19 specific antibody and a second detection antibody were used to detect the phosphorylation level of myosin light chain by In Cell Western. Cells treated with positive compounds were used as positive controls, while the group without compounds but with compound solvents was used as negative controls. DRAQ5 stained cell nuclei were used as internal references. GraphPad Prism 7.0 software was used, and fitting was carried out by using a non-linear regression curve with varying slopes to determine the absolute IC50 value.
On the first day, A7r5 cells were resuspended in serum-free medium and seeded into 384 wells of PDL coated transparent black plates at a density of 5000 cells per well. Serum starvation culture was performed for 4 hours, and the cells were incubated with the compound in serum-free medium for 1 hour. 50 μL of 8% PFA (polyformaldehyde) was added to each well and fixed at room temperature for 1 hour. The liquid in the wells was discard and 90 μL of ice methanol was added to each well to permeabilize the cells at 4° C. for 1 hour. Then, PBST (0.1% Tween20-PBS) was added using an automatic separator to wash three times. After patting the plate for drying, 50 μL blocking solution was added to each well for sealing at room temperature for 1 hour. The phspho-MLC-T18/S19 specific antibody was diluted with the blocking solution at a ratio of 1:200. After adding 20 μL to each well, incubation was carried out overnight at 4° C. with a sealed film.
On the second day, the liquid in the wells was discarded and PBST was added using an automatic separator to wash the plate 5 times. After patting the plate for drying, the second detection antibody was diluted with blocking solution at a ratio of 1:800 and DRAQ5 at a ratio of 1:1000. After adding 20 μL to each well, incubation was carried out at room temperature for 1 hour. Then, the liquid in the wells was discarded and PBST was added using an automatic separator to wash the plate 3 times, followed by adding ddH2O to wash the plate 3 times. After patting the plate for drying, it was scanned using a LICOR Odyssey near-infrared imaging scanner.

ROCK1, sequence (Q13464 whole entry): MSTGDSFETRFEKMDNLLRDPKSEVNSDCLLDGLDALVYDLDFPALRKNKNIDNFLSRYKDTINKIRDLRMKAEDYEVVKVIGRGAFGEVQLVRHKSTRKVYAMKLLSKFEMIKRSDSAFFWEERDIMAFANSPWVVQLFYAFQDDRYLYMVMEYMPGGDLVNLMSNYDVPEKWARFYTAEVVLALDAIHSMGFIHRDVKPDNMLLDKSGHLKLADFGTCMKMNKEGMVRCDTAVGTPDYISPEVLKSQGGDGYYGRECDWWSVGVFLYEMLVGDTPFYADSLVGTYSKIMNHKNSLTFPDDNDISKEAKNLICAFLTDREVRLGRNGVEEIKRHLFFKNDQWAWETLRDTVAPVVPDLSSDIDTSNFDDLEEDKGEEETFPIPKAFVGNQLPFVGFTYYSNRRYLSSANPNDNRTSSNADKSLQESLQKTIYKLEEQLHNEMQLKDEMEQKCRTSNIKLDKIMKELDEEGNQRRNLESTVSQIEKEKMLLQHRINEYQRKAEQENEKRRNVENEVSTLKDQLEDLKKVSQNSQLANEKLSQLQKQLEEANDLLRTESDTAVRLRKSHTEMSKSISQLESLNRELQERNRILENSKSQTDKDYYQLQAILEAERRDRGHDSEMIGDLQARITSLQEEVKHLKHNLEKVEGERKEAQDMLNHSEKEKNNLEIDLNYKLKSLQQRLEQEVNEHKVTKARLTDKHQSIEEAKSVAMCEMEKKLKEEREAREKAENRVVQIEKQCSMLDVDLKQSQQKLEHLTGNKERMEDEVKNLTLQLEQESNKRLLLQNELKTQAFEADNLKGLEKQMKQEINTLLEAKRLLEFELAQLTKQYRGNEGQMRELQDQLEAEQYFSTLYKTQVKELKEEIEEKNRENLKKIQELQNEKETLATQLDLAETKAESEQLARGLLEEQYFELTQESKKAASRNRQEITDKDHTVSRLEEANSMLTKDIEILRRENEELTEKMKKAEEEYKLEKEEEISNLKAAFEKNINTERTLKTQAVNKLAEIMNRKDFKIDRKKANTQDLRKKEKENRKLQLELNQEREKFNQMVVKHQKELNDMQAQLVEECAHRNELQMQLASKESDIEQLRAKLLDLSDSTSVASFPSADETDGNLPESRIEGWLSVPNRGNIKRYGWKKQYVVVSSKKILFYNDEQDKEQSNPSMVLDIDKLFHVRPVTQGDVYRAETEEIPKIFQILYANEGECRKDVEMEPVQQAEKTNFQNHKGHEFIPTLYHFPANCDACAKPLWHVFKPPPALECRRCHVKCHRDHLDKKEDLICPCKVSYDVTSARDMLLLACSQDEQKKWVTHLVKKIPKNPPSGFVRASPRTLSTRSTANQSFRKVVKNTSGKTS

IC50 [1] [nM]	IC50 [2] [nM]	IC50 [3] [nM]	SMILES
> 100	> 100	> 10000	CCS(=O)(=O)N1CC(CC#N)(n2cc(-c3cc(-c4cnn(C)c4)nc4ccnn34)c(N)n2)C1 [Example 82]
< 5	< 5	678	C[C@H](N)CS(=O)(=O)N1CC(CC#N)(n2cc(-c3ncnc4[nH]ccc34)c(N)n2)C1 [Example 87, (S)-2-(3-(3-amino-4-(7H-pyrrolo[2,3-d]pyrimidin-4-yl)-1H-pyrazol-1-yl)-1-((2-aminopropyl)sulfonyl)azetidine-3-yl)acetonitrile trifluoroacetate salt]

The next lines start with the compound.

SMILES	IC50 [1] [nM]	IC50 [2] [nM]	IC50 [3] [nM]
CCNc1nn(C2(CC#N)CN(S(=O)(=O)C(F)(F)F)C2)cc1-c1ncnc2[nH]ccc12 [Example 6, 2-(3-(3-(ethylamino)-4-(7H-pyrrolo[2,3-d]pyrimidin-4-yl)-1H-pyrazol-1-yl)-1-((trifluoromethyl)sulfonyl)azetidine-3-yl)acetonitrile]	< 5	< 5	181
N#CCC1(n2cc(-c3ncnc4[nH]ccc34)c(O)n2)CN(C(=O)NCC(F)(F)F)C1 [Example 55, 3-(cyanomethyl)-3-(3-hydroxyl-4-(7H-pyrrolo[2,3-d]pyrimidin-4-yl)-1H-pyrazol-1-yl)-N-(2,2,2-trifluoroethyl)azetidine-1-formamide]	< 50	> 100	> 10000
N#CCC1(n2cc(-c3ncnc4[nH]ccc34)c(C(N)=O)n2)CN(C(=O)NCC(F)(F)F)C1 [Example 61, 1-(3-(cyanomethyl)-1-((2,2,2-trifluoroethyl)carbamoyl)azetidine-3-yl)-4-(7H-pyrrolo[2,3-d]pyrimidin-4-yl)-1H-pyrazol-3-formamide]	> 100	> 100	> 10000
N#CCC1(n2cc(-c3ncnc4[nH]ccc34)c(N)n2)CN(S(N)(=O)=O)C1 [Example 45, 3-(3-amino-4-(7H-pyrrolo[2,3-d]pyrimidin-4-yl)-1H-pyrazol-1-yl)-3-(cyanomethyl)azetidine-1-sulfonamide]	< 5	< 5	579
CNC(=O)c1nn(C2(CC#N)CN(S(=O)(=O)CC(F)(F)F)C2)cc1-c1ncnc2[nH]ccc12 [Example 62, 1-(3-(cyanomethyl)-1-((2,2,2-trifluoroethyl)sulfonyl)azetidine-3-yl)-N-methyl-4-(7H-pyrrolo[2,3-d]pyrimidin-4-yl)-1H-pyrazol-3-formamide]	> 100	> 100	> 10000
COc1nsc(NC(=O)N2CC(CC#N)(n3cc(-c4ncnc5[nH]ccc45)c(N)n3)C2)n1 [Example 19, 3-(3-amino-4-(7H-pyrrolo[2,3-d]pyrimidin-4-yl)-1H-pyrazol-1-yl)-3-(cyanomethyl)-N-(3-methoxy-1,2,4-thiadiazol-5-yl)azetidine-1-formamide]	< 10	< 10	> 10000
